Eleven compounds from patent US20230002327A1, “SMALL-MOLECULE REGULATOR OF TLR8” (TSINGHUA UNIVERSITY, priority 2019, published 2023) can be followed below.

The target of series [1] is T1, TLR8 (Homo sapiens, UniProt Q9NR97).
T1 construct: host or cells: HEK-Blue hTLR8 (HEK293-derived SEAP reporter cells)
T1 sequence (Q9NR97 27-1041): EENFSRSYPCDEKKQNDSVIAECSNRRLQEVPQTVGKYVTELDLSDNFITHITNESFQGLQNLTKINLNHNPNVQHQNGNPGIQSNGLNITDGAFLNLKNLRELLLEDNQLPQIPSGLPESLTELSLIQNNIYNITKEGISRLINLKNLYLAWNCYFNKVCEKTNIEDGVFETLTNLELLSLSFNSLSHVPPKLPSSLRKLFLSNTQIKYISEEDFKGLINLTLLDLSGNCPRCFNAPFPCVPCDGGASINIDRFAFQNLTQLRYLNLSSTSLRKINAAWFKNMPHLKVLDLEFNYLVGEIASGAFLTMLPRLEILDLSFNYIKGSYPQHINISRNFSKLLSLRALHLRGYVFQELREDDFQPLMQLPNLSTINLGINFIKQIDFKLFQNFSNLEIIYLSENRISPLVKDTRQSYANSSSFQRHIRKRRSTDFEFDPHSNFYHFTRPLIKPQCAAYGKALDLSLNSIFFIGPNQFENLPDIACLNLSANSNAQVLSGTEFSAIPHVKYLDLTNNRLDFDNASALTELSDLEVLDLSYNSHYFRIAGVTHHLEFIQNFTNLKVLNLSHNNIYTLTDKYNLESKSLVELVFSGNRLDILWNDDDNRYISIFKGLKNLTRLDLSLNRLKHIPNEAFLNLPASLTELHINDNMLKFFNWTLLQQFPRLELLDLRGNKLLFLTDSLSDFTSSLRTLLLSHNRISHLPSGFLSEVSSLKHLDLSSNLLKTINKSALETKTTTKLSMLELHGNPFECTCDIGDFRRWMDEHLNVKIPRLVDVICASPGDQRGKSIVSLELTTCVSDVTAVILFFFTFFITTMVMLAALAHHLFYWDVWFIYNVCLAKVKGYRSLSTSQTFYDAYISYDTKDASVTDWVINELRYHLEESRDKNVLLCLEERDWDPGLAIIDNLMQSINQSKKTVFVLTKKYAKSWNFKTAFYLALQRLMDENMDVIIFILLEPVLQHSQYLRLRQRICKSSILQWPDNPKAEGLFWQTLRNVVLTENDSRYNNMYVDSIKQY
The series is described as follows: Inhibition of R848-induced signaling in HEK-Blue hTLR8 cell line (Quanti-Blue). The series is classed as cell-based. The conditions noted are these: HEK-Blue hTLR8 cell line; normalized, ligand+DMSO = 100% activity, untreated = 0%. On the procedure: (§1) HEK Blue hTLR8 cells or HEK Blue hTLR7 cells were cultured in DMEM medium supplemented with 10% fetal bovine serum, penicillin (100 U/mL) and streptomycin ([…]). Thereafter, cells were seeded in 96-well plate (45,000 cells per well), and were cultured for 24 hours in a humidified incubator (37° C., 5% CO2).
After 24 hours, the supernatant and suspending cells were aspirated and replaced with fresh serum-free DMEM.
(§2) After 24 hours, 50 μL of the medium was aspirated from each well and then added to a new 96-well plate, followed by the addition of 50 μL of Quanti-Blue in each well and the incubation at 37° C. in darkness. Changes in color would occur in the […] within 60 minutes, and the absorbance was measured at 620 nm by using the multi-mode plate reader Vrioskan Flash. Inhibition rate (%)=[R848 (OD620)−Compound (OD620)]/[R848 (OD620)−Control (OD620)]×100%. Among these, the control group was only added with the same amount of cells. Finally, the software Prism 6.0 was utilized to plot a graph and calculate IC50 values. Or, the activity of the cells treated with ligand and DMSO was defined as 100% activity, and the activity of the untreated cells was defined as 0% activity.

Series [2] concerns the target T2, TLR7 (Homo sapiens, UniProt Q9NYK1).
T2 construct: host or cells: HEK-Blue hTLR7 (HEK293-derived SEAP reporter cells)
T2 sequence (Q9NYK1 27-1049): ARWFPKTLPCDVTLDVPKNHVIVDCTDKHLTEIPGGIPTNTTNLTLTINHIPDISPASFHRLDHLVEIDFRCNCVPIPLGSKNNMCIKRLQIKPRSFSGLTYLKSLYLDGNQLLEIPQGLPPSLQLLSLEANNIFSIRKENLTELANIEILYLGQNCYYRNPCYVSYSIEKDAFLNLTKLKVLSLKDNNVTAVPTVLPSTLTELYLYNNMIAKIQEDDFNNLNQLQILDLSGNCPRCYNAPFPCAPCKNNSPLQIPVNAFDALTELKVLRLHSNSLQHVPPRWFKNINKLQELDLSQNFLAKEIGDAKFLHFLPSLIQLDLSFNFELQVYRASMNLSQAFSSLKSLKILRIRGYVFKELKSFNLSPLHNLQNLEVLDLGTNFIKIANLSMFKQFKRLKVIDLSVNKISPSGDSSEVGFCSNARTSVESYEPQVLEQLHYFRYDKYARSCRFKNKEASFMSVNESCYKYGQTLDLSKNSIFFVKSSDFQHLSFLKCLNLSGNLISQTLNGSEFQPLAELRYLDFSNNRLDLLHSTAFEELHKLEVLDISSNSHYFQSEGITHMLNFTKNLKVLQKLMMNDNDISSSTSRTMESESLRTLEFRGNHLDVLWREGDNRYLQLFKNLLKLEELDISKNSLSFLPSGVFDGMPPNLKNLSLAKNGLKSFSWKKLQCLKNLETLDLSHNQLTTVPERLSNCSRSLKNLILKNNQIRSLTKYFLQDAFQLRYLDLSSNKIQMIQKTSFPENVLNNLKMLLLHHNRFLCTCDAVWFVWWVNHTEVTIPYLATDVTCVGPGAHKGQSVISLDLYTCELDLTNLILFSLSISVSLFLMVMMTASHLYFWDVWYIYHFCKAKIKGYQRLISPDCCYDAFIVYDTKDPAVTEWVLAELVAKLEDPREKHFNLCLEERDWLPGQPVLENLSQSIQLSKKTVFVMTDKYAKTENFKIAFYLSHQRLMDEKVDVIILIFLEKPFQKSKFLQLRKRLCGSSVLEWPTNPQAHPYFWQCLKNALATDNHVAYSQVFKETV
The series is described as follows: Inhibition of R848-induced signaling in HEK-Blue hTLR7 cell line (Quanti-Blue). The series is classed as cell-based. As for the experimental part: as §1
After 24 hours, the supernatant and suspending cells were aspirated and replaced with fresh serum-free DMEM. Cells were treated with 1 μg/mL of R848 (agonist of TLR7/8) or 5 μg/mL of ssRNA40/LyoVec or 5 μg/mL of ORN06/LyoVec (InvivoGen) and compounds with specified concentrations, and were placed in a humidified incubator (37° C., 5% CO2) for co-culture.
as §2

The test system of series [3] is HEK-Blue hTLR8 cell line. The series is described as follows: Toxicity test of compounds (CCK-8 cell viability). The series is classed as cell-based, human. Also noted: key to WST1 (normalized toxicity effect): viability relative to control well (background-subtracted OD), 1 = control. Conditions: normalized cell viability, HEK-Blue cell lines. On the procedure:
In the 96-well plate used for the above-mentioned activity test of compounds (remaining 50 μL of culture medium containing cells), 5 μL of CellCountingKit-8 (CCK-8) Supermix was added to each well. Note that the introduction of air bubbles into the wells should be avoided since the air bubbles would interfere with the detection of OD value.
The culture plate was incubated in an incubator for 1 to 4 hours,
The edge of the 96-well plate could be tapped gently before reading the plate, and then the absorbance at 450 nm was measured by using the multi-mode plate reader.
Cell viability (%) was determined using the following formula: cell viability (%)=([Compound well ([…])−Background well (OD450)]/[Control well ([…])−Background well (OD450)])×100%. Among these, the background well was only added with the medium and CCK-8 reagent, the control well was only added with the medium, cells, R848 and CCK-8, and the compound wells were added with the medium, cells, R848, compounds in different concentrations, and CCK-8.

Regarding `CCOCc1nc(Br)c(-c2ccccc2)n1CC(C)(C)O` [Compound 52, 1-[4-bromo-2-(ethoxymethyl)-5-phenyl-1H-imidazole-1-yl]-2-methylpropan-2-ol], the “Remaining R848-induced TLR8 signaling (normalized activity; ligand+DMSO = 1, untreated = 0)” value in series [1] is on record as 0.3 ± 0.2. The “TLR7 (normalized inhibitory effect on R848-induced signaling)” value in series [2] is listed as 0.8 ± 0.2. Besides, the “WST1 (normalized toxicity effect)” value in series [3] amounted to 1.1 ± 0.3.
Turning to `CCOCc1nc(C(=O)O)c(-c2ccccc2)n1CC(C)(C)O` [Compound 54, 2-(ethoxymethyl)-1-(2-hydroxy-2-methylpropyl)-5-phenyl-1H-imidazole-4-carboxylic acid], the “Remaining R848-induced TLR8 signaling (normalized activity; ligand+DMSO = 1, untreated = 0)” value in series [1] is 0.9 ± 0.2. Moreover, the “TLR7 (normalized inhibitory effect on R848-induced signaling)” value in series [2] worked out at 0.9 ± 0.2. Moreover, in series [3], the “WST1 (normalized toxicity effect)” value is recorded as 1.1 ± 0.3.
In the case of `CCOCc1ncc(-c2ccccc2)n1CC(C)C` [Compound 55, 2-(ethoxymethyl)-1-(2-methylpropyl)-5-phenyl-1H-imidazole], in series [1], the “Remaining R848-induced TLR8 signaling (normalized activity; ligand+DMSO = 1, untreated = 0)” value is listed as 0.8 ± 0.1. Also, the “TLR7 (normalized inhibitory effect on R848-induced signaling)” value in series [2] amounted to 0.6 ± 0.2. In series [3], the “WST1 (normalized toxicity effect)” value stood at 0.9 ± 0.3.
For the compound `CCOCc1nc(Cl)c(-c2ccccc2)n1CC(C)C` [Compound 56, 4-chloro-2-(ethoxymethyl)-1-(2-methylpropyl)-5-phenyl-1H-imidazole], in series [1], the “Remaining R848-induced TLR8 signaling (normalized activity; ligand+DMSO = 1, untreated = 0)” value is reported as 0.5 ± 0.2. Moreover, the “TLR7 (normalized inhibitory effect on R848-induced signaling)” value in series [2] was 0.6 ± 0.2. In series [3], the “WST1 (normalized toxicity effect)” value is 0.7 ± 0.2.
The like results for `CCOCc1nc(Br)c(-c2ccccc2)n1CC(C)C` [Compound 57, 4-bromo-2-(ethoxymethyl)-1-(2-methylpropyl)-5-phenyl-1H-imidazole] were, in that order, 0.01 ± 0.01, 0.1 ± 0.1 and 0.7 ± 0.1.
Regarding `CCOCc1nc(I)c(-c2ccccc2)n1CC(C)C` [Compound 58, 2-(ethoxymethyl)-4-iodo-1-(2-methylpropyl)-5-phenyl-1H-imidazole], the “Remaining R848-induced TLR8 signaling (normalized activity; ligand+DMSO = 1, untreated = 0)” value in series [1] stood at 0.01 ± 0.01. The “TLR7 (normalized inhibitory effect on R848-induced signaling)” value in series [2] is listed as 0.1 ± 0.2. The “WST1 (normalized toxicity effect)” value in series [3] stood at 0.3 ± 0.2.
Turning to `CCOCc1nc(I)c(-c2ccc(-c3ccccc3)cc2)n1CC(C)(C)O` [Compound 60, 1-(5-([1,1′-biphenyl]-4-yl)-2-(ethoxymethyl)-4-iodo-1H-imidazole-1-yl)-2-methylpropan-2-ol], in series [1], the “Remaining R848-induced TLR8 signaling (normalized activity; ligand+DMSO = 1, untreated = 0)” value came out at 0.3 ± 0.1. For the same compound, the “TLR7 (normalized inhibitory effect on R848-induced signaling)” value in series [2] came to 1.0 ± 0.1. Moreover, the “WST1 (normalized toxicity effect)” value in series [3] was 0.6 ± 0.1.
For `CCOCc1nc(I)c(-c2cccc(-c3ccccc3)c2)n1CC(C)(C)O` [Compound 61, 1-(5-([1,1′-biphenyl]-3-yl)-2-(ethoxymethyl)-4-iodo-1H-imidazole-1-yl)-2-methylpropan-2-ol] the same measures were 0.01 ± 0.01, 0.9 ± 0.1 and 0.9 ± 0.2.
The like results for `CCOCc1nc(I)c(-c2cccc3ccccc23)n1CC(C)(C)O` [Compound 62, 1-(2-(ethoxymethyl)-4-iodo-5-(naphthalen-1-yl)-1H-imidazole-1-yl)-2-methylpropan-2-ol] were, in that order, 0.06 ± 0.1, 0.9 ± 0.1 and 0.8 ± 0.1.
The like results for `CCOCc1nc(I)c(-c2ccc3ccccc3c2)n1CC(C)(C)O` [Compound 63, 1-(2-(ethoxymethyl)-4-iodo-5-(naphthalen-2-yl)-1H-imidazole-1-yl)-2-methylpropan-2-ol] were, in that order, 0.9 ± 0.1, 0.9 ± 0.2 and 1.0 ± 0.1.
As for `CCOCc1nc(I)c(-c2ccc(C)cc2)n1CC(C)(C)O` [Compound 64, 1-(2-(ethoxymethyl)-4-iodo-5-(p-tolyl)-1H-imidazole-1-yl)-2-methylpropan-2-ol], the “Remaining R848-induced TLR8 signaling (normalized activity; ligand+DMSO = 1, untreated = 0)” value in series [1] is given as 0.9 ± 0.1. The “TLR7 (normalized inhibitory effect on R848-induced signaling)” value in series [2] is recorded as 0.9 ± 0.2. In addition, in series [3], the “WST1 (normalized toxicity effect)” value is listed as 1.1 ± 0.1.
